The values below come from publication PMC8587151, “Dibenzofuran Derivatives Inspired from Cercosporamide as Dual Inhibitors of Pim and CLK1 Kinases” (Molecules, 2021).

In data set [1] the test system is Pim-1. To be noted: Figure 1; cited from earlier work.
Data set [2] has as its system Pim-2. The settings on record: Figure 1; cited from earlier work.
Data set [3] deals with T1, HsCDK5/p25 (Homo sapiens, UniProt Q00535).
T1 construct: made in house; host or cells: Escherichia coli BL21 DE3 pLysS
T1 sequence (Q00535 whole entry): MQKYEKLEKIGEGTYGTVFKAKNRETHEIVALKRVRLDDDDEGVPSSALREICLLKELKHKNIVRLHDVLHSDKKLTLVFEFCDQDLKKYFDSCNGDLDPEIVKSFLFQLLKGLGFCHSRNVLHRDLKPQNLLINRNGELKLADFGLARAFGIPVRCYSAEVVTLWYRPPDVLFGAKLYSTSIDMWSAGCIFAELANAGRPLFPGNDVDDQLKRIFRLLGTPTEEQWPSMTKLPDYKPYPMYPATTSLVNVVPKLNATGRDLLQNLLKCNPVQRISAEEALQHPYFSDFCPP
T1 sequence (Q15078 99-307 partner limits assumed): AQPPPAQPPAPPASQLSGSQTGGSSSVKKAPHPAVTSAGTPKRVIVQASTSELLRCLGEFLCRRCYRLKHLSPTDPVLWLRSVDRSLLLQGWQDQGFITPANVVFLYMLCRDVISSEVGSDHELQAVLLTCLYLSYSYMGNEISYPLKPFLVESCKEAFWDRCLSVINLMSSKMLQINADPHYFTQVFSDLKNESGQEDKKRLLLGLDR
Kind of data set: Kinase assay, luminescent ADP-Glo, 10 µM ATP. Type of data set: biochemical. The settings on record: duplicate, read-out: Kinase Enzymatic IC50 CDK5/p25. The protocol: (§1) The synthesized compounds were tested using a luminescence-based assay against a panel of nine kinases: Pim-1, Pim-2, CDK5/p25, CDK9/CyclinT, Haspin, CK1ε, and GSK3β (from human); DYRK1A (from Rattus norvegicus); and CLK1 (from Mus musculus).
(§2) Kinase enzymatic activities were assayed with 10 µM ATP in 384-well plates using the luminescent ADP-Glo^TM assay (Promega, Madison, WI, USA) according to the recommendations of the manufacturer (see [56] for details on this method). The transmitted signal was measured using the Envision (PerkinElmer, Waltham, MA, USA) microplate luminometer and expressed in relative light unit (RLU). In order to determine the half maximal inhibitory concentration (IC50), the assays were performed in duplicate in the absence or presence of increasing doses of the tested compounds. GraphPad Prism6 software (GraphPad Software, San Diego, CA, USA) was used to fit dose–response curves and to determine the IC50 values. Kinase activities are expressed in % of maximal activity, i.e., measured in the absence of inhibitor. Peptide substrates were obtained from Proteogenix (Schiltigheim, France).
(§3) For kinases expressed in bacteria, the Escherichia coli BL21 DE3 pLysS strain (Invitrogen, ThermoFisher Scientific, Waltham, MA, USA) was transformed with pGEX-2T-1 (Sigma-Aldrich, St. Louis, MO, USA) containing the coding region of the corresponding kinase. For kinases expressed in Sf9 insect cells, the coding region of the corresponding kinase was cloned in pFastBac^TM vector. Purification of the recombinant kinases was performed following the protocol “Bac-to-Bac® Baculovirus Expression System” provided by the manufacturer (Invitrogen, ThermoFisher Scientific, Waltham, MA, USA).
(§4) To validate the kinase assay, model inhibitors were used for each tested enzyme: Staurosporine from Streptomyces sp. (#S5921, purity ≥ 95%, Sigma-Aldrich) for HsCK1ε; Indirubin-30-oxime (#I0404, purity ≥ 98%, Sigma-Aldrich) for HsGSK-3β, HsPim-1 and 2, human cyclin-dependent kinases, RnDYRK1A and MmCLK1; CHR-6494 (#SML0648, purity ≥ 98%, Sigma-Aldrich) for Haspin.
(In general: In ADP-Glo the light output rises with the ADP produced.)

In data set [4] the target is T2, HsCDK9/CyclinT (Homo sapiens, UniProt P50750).
T2 construct: made in house; host or cells: Sf9 insect cells (baculovirus, pFastBac)
T2 sequence (P50750 whole entry): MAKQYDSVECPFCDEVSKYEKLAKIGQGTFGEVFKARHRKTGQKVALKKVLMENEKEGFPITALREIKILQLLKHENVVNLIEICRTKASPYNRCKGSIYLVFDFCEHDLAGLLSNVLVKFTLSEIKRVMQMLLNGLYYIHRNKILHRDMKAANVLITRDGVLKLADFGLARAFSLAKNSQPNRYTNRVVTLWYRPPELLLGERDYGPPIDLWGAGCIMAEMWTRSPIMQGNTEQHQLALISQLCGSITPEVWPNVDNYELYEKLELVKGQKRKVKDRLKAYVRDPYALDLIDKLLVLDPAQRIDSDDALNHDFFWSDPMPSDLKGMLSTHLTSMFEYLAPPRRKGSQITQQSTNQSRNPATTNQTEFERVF
T2 sequence (O60563 whole entry partner): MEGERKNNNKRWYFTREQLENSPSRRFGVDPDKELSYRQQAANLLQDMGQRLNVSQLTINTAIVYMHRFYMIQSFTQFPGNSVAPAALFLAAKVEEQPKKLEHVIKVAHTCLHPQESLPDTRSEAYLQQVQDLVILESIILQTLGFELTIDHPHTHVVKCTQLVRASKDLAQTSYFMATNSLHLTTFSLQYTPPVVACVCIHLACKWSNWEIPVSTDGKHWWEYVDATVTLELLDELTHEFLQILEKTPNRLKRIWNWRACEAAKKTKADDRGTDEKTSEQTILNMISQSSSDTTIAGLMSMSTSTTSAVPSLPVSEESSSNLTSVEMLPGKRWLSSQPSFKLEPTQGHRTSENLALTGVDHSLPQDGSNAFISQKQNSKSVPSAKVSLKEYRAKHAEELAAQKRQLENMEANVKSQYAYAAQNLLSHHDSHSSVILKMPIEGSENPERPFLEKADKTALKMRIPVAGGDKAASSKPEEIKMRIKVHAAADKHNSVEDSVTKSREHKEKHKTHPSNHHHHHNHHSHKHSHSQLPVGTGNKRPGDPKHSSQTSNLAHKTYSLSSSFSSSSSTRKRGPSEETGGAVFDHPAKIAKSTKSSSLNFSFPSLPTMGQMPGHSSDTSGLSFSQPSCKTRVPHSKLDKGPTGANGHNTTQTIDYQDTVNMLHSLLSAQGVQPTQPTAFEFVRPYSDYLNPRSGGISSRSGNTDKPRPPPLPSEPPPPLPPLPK
Kind of data set: Kinase assay, luminescent ADP-Glo, 10 µM ATP. Format: biochemical. The settings on record: duplicate, read-out: Kinase Enzymatic IC50 CDK9/CyclinT. How it is done:
as §1, §2, §3, §4

Data set [5] has as its target T3, HsPim-1 (Homo sapiens, UniProt P11309).
T3 construct: made in house; host or cells: Escherichia coli BL21 DE3 pLysS
Description: Kinase assay, luminescent ADP-Glo, 10 µM ATP. Type of data set: biochemical. The protocol:
as §1, §2, §3, §4

Data set [6] addresses T4, HsPim-2 (Homo sapiens, UniProt Q9P1W9).
T4 construct: made in house; host or cells: Escherichia coli BL21 DE3 pLysS
Kind of data set: Kinase assay, luminescent ADP-Glo, 10 µM ATP. Format: biochemical. To be noted: mean of n ≥ 3, read-out: IC50 Pim-2. The protocol: as §1, §2, §3, §4

The target of data set [7] is T5, MmCLK1 (Mus musculus, UniProt P22518).
T5 construct: made in house; host or cells: Escherichia coli BL21 DE3 pLysS
T5 sequence (P22518 whole entry): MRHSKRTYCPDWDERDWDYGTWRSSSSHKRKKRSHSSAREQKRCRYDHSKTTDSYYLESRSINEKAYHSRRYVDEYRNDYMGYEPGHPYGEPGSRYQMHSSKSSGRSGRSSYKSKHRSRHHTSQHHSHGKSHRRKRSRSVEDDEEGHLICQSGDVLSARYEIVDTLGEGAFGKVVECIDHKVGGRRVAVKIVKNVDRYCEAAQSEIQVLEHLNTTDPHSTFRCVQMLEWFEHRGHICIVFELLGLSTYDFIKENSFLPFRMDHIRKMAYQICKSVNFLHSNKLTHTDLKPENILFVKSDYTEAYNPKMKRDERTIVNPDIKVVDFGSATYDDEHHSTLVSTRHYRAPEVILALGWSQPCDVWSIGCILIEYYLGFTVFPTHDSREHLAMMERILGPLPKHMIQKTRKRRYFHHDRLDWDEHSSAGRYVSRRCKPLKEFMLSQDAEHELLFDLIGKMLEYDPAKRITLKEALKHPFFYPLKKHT
Kind of data set: Kinase assay, luminescent ADP-Glo, 10 µM ATP. To be noted: for IC50: ADP-Glo, 10 µM ATP, duplicate, read-out: Kinase Enzymatic IC50 CLK1. Type of data set: biochemical. The protocol:
as §1, §2, §3, §4

Data set [8] relates to MV4-11 cells. Description: MTT cell proliferation assay. Type of data set: cell-based, human. To be noted: Homo sapiens, MV4-11, 48 h, mean ± SEM. The text has this: (§5) Various types of hematological malignancies were selected for in vitro testing: the human acute myeloid leukemia (AML) cell line MV4-11, and the human chronic myeloid leukemia (CML) cell lines KU812 and K562. Indeed, Pim kinases are overexpressed in a wide range of hematopoietic malignancies. Solid tumors were also included in the panel of tested cell lines: MCF-7 (human breast adenocarcinoma), HT-29 (human colon adenocarcinoma), and HeLa (human cervical cancer) cells. Cytotoxic effects were evaluated using an MTT assay, and living cells were also counted with the trypan blue dye exclusion method for MV4-11, KU812, and K562 cells.
(§6) MV4-11, K562, and KU812 cell lines were obtained from the Deutshe Sammlung von Mikroorganismens und Zellkulturen (DSMZ) and maintained according to the supplier’s recommendations. All cell lines were cultured in RPMI, with 10% fetal bovine serum, 1% glutamine, and 1% penicillin/ streptomycin at 37 °C and 5% CO2.
(§7) MV4-11, K562, and KU812 cells’ viability was studied using a MTT cell proliferation assay.
(§8) MV4-11, K562, and KU812 cells were incubated with 10 μL of MTT working solution (5 g/L of methylthiazolyldiphenyl-tetrazolium bromide from Sigma Aldrich, Lyon, France) for 4 h. Cells were then lysed overnight at 37 °C with 100 μL of 10% SDS and 0.003% HCl. Optical density (OD) at 570 nm was measured using a spectrophotometer CLARIOstar® (BMG Labtech, Offenburg, Germany). Living cells were also counted with the trypan blue dye exclusion method. […] Data were collected from at least three independent experiments and the values reported are means ± standard errors of the mean (SEM).
Background: Tetrazolium assays rely on reduction of a dye to a coloured formazan, in cell work by metabolically active cells.

Data set [9] deals with K562 cells. Description: MTT cell proliferation assay. Type of data set: cell-based. To be noted: Homo sapiens, 48 h, mean ± SEM.
Text: as §5, §6, §7, §8

Data set [10] has as its system KU812 cells. Description: MTT cell proliferation assay. Format: cell-based. To be noted: Homo sapiens, 48 h, mean ± SEM.
Text: as §5, §6, §7, §8

Data set [11] deals with HT-29 cells. Description: MTT cytotoxicity assay. Format: cell-based. To be noted: Homo sapiens, 72 h.
Text: as §5
(§9) The cancer cell lines MCF-7, HT-29, and HeLa were obtained from Cell Bank of Rio de Janeiro, Brazil, and were grown in RPMI-1640 medium and L929 cells were grown in Dulbecco’s Modified Eagle’s Medium (DMEM). Both media were supplemented with fetal bovine serum (FBS) (10% of the final concentration) followed by treatment with penicillin and streptomycin as antibiotics (1% of the final concentration). The crude was incubated in the presence of CO2 atmosphere (5%) for 24 h with the temperature monitored and maintained at 37 °C.
(§10) MCF-7, HT-29, HeLa, and L929 cells (3×10^5 cells/mL) were plated in 96-well plates and incubated in the presence of CO2 atmosphere (5%) for 24 h at 37 °C. […] Then, 25 μL of MTT (5 mg/mL in PBS) were added to each well and the plates were left for another 3 h in the incubator at 37 °C and at the end of this period, the supernatant was aspirated. To perform the reading, 100 μL of dimethylsulfoxide (DMSO) were added in each well for the dissolution of the formazan crystals. The amount of formazan was measured by reading the plate at 560 nm absorbance. […] Each sample was tested in triplicate in two independent experiments.

The subject of data set [12] is HeLa cells. Description: MTT cytotoxicity assay. Type of data set: cell-based. The settings on record: Homo sapiens, 72 h.
Text: as §5, §9, §10

Data set [13] deals with MCF-7 cells. Description: MTT cytotoxicity assay. Type of data set: cell-based. To be noted: Homo sapiens, MCF7, 72 h.
Text: as §5, §9, §10

Data set [14] deals with CaPkc1. Details: method as in PMID 20865172. The settings on record: ATP-competitive; cited from earlier work.
In data set [15] the target is RnDYRK1A-kd (Rattus norvegicus, UniProt Q63470). Description: Kinase assay, luminescent ADP-Glo, 10 µM ATP. Type of data set: biochemical. The settings on record: read-out: IC50 DYRK1A. The protocol: as §1, §2, §3, §4
Data set [16] concerns L929 cells. Description: MTT assay, in vitro toxicity on normal cells. Format: cell-based. To be noted: 72 h, normal mouse fibroblasts.
Text: as §5, §9, §10

Data set [17] addresses T6, HsCK1ε (Homo sapiens, UniProt P49674).
T6 construct: made in house; host or cells: Sf9 insect cells (baculovirus, pFastBac)
Description: Kinase assay, luminescent ADP-Glo, 10 µM ATP. Type of data set: biochemical. The settings on record: read-out: IC50 CK1. The protocol: as §1, §2, §3, §4

The mark [18] stands for this setting: Table 1, ADP-Glo, 10 µM ATP, duplicate, read-out: Kinase Enzymatic IC50 Pim-1.
The mark [19] stands for this setting: Table 2, ADP-Glo, 10 µM ATP, mean of n ≥ 3, read-out: IC50 Pim-1.

As usually defined, the melting point is the temperature of the solid-liquid transition.

Values joined by “and” are separate entries in the source; they are usually repeats but may differ in a detail not shown here. Equal values may be shown once. Read-outs that look alike come from different tables or passages of the source.

T3 sequence (P11309 whole entry): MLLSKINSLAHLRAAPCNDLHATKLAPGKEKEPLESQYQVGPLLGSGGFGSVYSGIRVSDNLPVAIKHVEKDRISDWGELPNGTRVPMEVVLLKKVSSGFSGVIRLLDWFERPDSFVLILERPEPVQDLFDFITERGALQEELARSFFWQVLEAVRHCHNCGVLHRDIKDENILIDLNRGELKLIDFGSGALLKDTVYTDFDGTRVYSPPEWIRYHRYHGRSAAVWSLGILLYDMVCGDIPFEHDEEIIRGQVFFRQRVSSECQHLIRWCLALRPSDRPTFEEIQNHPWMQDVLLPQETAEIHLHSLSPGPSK
T4 sequence (Q9P1W9 whole entry): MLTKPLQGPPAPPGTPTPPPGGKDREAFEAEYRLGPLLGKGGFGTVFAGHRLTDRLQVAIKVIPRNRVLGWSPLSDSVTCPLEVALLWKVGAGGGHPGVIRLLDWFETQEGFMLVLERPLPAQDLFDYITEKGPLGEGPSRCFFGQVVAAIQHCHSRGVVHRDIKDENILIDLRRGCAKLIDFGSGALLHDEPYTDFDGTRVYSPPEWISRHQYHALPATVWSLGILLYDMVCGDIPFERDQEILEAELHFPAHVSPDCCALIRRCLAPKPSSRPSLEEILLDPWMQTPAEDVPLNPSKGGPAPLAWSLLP
T6 sequence (P49674 whole entry): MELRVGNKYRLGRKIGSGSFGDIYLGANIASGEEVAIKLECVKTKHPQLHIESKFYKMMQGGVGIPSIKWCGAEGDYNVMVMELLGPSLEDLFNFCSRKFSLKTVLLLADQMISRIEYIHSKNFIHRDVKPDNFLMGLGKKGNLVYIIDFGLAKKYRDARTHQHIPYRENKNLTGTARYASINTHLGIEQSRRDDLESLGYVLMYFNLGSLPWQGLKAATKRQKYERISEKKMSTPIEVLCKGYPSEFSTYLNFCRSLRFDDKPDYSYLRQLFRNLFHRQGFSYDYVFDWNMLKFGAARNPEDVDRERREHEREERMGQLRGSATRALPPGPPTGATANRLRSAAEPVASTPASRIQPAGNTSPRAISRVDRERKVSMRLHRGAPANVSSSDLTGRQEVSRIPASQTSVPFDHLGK

`CC(=O)C1=C(O)C=C2Oc3c(C(C)=O)c(O)c(C)c(O)c3[C@@]2(C)C1=O` [(+)-Usnic acid]: the IC50 was 210 nM in [1] and 580 nM in [2].
For `CC(=O)C1=C(O)C=C2Oc3c(C(N)=O)c(O)cc(O)c3[C@]2(C)C1=O` [Cerco, Cercosporamide], the IC50 in [3] was 5600 nM; in data set [4], 220 nM; in [5] (setting [18]), 730 nM; in data set [5] (setting [19]), 730 nM; in [5] (printed in Figure 1, no reference given, read-out: Pim-1 IC50 (Figure 1)), 732 nM; in data set [6], 1430 nM. Also, the IC50 in data set [7] is above 10000 nM; in [8], 31500 ± 4700 nM; in data set [9], above 100000 nM; in [10], above 100000 nM; in [11] it was 10400 nM; in [12], 7500 ± 3100 nM. For the same molecule, the IC50 in [13] was 44300 ± 2100 nM; in [14], 44 nM.
With `COc1cc(OC)c2c(oc3ccc(F)cc32)c1C(N)=O` [Compound 41, 8-Fluoro-1,3-dimethoxydibenzo[b,d]furan-4-carboxamide], the melting point fell in the range of 230 to 231 °C. The IC50 in data set [5] (setting [18]) was above 10000 nM. In data set [15], the IC50 worked out at 1330 nM.
With `CC(=O)c1ccc2oc3c(C(N)=O)c(O)cc(O)c3c2c1` [Compound 45, 8-Acetyl-1,3-dihydroxydibenzo[b,d]furan-4-carboxamide], the IC50 was above 10000 nM in [3]; above 10000 nM in data set [4]; 280 nM in [5] (setting [18]); 280 nM in [5] (setting [19]); 120 nM in data set [6]; 140 nM in data set [7]. The IC50 in data set [8] is 8800 ± 900 nM; in [9], above 100000 nM; in data set [10] it was 69400 ± 12900 nM; in data set [12], 59600 ± 7600 nM; in [13] it was above 100000 nM; in data set [16] it was above 100000 nM. Also, the “fold less active than 44 against CLK1” value in data set [7] (ratio of IC50 values) is reported as 5 fold.
For the molecule `NC(=O)c1c(O)cc(O)c2c1oc1ccc(F)cc12` [Compound 46, 8-Fluoro-1,3-dihydroxydibenzo[b,d]furan-4-carboxamide], the melting point is 342 to 343 °C. For the same molecule, the IC50 in data set [4] was found to be 920 nM. Besides, the IC50 in [17] was determined as 680 nM. The IC50 in data set [5] (setting [18]) was > 1000 nM and 1200 nM. In data set [5] (setting [19]), the IC50 was 1200 nM. In data set [15], the IC50 worked out at 690 nM. The molecule also had an IC50 in data set [8] of 16100 ± 1600 nM. Further, the IC50 in [9] is above 100000 nM. Besides, the IC50 in data set [10] is above 100000 nM.
